Test results published in publication PMC12016938, “A small molecule PKCε inhibitor reduces hyperalgesia induced by paclitaxel or opioid withdrawal” (JCI Insight, 2025).
“And” between values parts separate entries of the source, which are not always exact repeats. Identical values can stand only once. Like-named read-outs stand apart in the source and are kept apart here.

Tests used:
PKCθ = PKCθ (Homo sapiens, UniProt Q04759); assay: scanMax kinome panel, PKCθ; assay type: binding; parameters: purchased Eurofins-DiscoverX; conditions: 200 nM CP612; read-out: scanMax % of control, PKCθ
Protocol: (§1) CP612 was screened for kinome specificity at 200 nM against 468 kinases using the scanMax assay panel from Eurofins-DiscoverX. CP612 inhibited 10 other WT kinases besides PKCε, all to < 10% of control: CLK1 (CDC Like Kinase 1), CLK4, PKN1 (Protein kinase N1), PKN2, PKCδ, PKCη, PKCθ, PRKG2 (Protein Kinase CGMP-Dependent 2), ROCK1, and ROCK2.

[1] = system: morphine self-administration;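 note: rats trained to self-administer intravenous morphine at 500 µg/kg per infusion, first under FR1 then FR3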
[2] = LogD determination (PBS/n-octanol); assay type: physicochemical; conditions: 1:1 0.1M PBS/n-octanol, mean of duplicate, 37°C
Protocol: LogD determination. Test compounds were diluted by adding 12 μL of 1 mM DMSO stocks to 1,188 μL of 1:1 0.1M PBS/n-octanol in duplicate. Samples were vortexed, shaken at 600 rpm for 3 hours at 37°C. Samples (100 μL) of each phase layer were extracted in 3 volumes of acetonitrile for 15 minutes, centrifuged at 10,000g for 10 minutes, and then analyzed by LC-MS. The ratio of concentrations measured in the organic and aqueous phases was log10 transformed to determine the logD.

PKCη = molecular target: T1, PKCη (Homo sapiens, UniProt P24723); assay: scanMax kinome panel, PKCη; assay type: binding; conditions: 200 nM CP612; read-out: scanMax % of control, PKCη
T1 construct: purchased Eurofins-DiscoverX
Protocol: as §1

T1 sequence (P24723 whole entry): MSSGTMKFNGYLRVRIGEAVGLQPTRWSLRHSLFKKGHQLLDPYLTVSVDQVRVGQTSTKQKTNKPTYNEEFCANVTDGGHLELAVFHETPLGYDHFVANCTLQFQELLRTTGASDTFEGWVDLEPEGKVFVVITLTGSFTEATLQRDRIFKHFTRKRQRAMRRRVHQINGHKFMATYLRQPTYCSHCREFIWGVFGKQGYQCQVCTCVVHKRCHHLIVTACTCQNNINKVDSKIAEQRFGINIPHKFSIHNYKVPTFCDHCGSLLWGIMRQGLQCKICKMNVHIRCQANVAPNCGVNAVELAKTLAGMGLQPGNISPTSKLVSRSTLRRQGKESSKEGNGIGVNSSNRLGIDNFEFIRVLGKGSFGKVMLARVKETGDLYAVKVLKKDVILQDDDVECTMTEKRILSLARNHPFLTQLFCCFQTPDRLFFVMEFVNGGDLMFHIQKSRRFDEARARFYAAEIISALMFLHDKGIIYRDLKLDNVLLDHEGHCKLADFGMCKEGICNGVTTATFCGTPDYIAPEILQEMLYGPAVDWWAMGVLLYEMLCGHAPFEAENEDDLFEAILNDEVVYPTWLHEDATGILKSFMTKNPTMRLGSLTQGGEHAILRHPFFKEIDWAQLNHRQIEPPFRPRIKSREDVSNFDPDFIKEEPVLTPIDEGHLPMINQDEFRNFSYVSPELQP
PKCθ, sequence (Q04759 whole entry): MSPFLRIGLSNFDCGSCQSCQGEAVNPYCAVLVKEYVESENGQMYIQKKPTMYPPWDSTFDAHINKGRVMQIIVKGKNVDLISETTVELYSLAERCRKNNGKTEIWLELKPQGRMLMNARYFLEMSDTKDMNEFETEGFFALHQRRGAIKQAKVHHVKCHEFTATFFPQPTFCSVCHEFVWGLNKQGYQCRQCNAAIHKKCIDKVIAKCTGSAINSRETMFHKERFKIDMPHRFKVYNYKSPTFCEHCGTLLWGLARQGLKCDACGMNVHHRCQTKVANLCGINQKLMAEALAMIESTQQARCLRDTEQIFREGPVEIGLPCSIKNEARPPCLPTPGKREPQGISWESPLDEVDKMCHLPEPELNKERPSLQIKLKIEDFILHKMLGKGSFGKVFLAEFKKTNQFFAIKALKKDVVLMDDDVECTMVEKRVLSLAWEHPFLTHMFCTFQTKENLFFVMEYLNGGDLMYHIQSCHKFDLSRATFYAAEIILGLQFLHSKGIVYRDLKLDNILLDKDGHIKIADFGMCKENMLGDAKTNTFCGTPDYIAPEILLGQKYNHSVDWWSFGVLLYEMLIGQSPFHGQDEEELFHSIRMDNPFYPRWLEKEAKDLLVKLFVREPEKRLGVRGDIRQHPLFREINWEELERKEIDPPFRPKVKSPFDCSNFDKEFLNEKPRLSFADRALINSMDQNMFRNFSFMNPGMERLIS

## N[C@H](CNC(=O)C1(c2ccc(Cl)cc2)CCCC1)c1ccc(C(=O)Nc2ccncc2)cc1 [CP612]
PKCθ
  remaining binding at 0.2 µM: < 10%
[1]; BP, Day 10, progressive ratio PR1, CP612 6 hours prior, group mean, n=7
  D10 BP (PR1): 25.57
[1]; BP, Day 12, progressive ratio PR2 withdrawal, CP612 6 hours prior, group mean, n=6
  D12 BP (PR2_WD): 21.67
[1]; BP, Day 13, progressive ratio PR3_Nal, CP612 6 hours prior, group mean, n=7
  D13 BP (PR3_Nal): 17.57
[1]; BP, PR2_WD, day 12, individual rats
  D12 BP (PR2_WD): 40 and 15 and 20
[1]; CP612 30 mg/kg i.p. 6 hours prior, progressive ratio tests 1-3
  Effect on morphine intake or responding (infusions and breaking point): did not modify morphine intake or responding
[1]; active hole responses, Day 1, fixed ratio 1, mean of CP612 group, n=7
  D1 AH (FR1): 16.14
[1]; active hole responses, Day 2, fixed ratio 1, mean of CP612 group, n=7
  D2 AH (FR1): 13.86
[1]; active hole responses, Day 3, fixed ratio 1, mean of CP612 group, n=7
  D3 AH (FR1): 16.29
[1]; active hole responses, Day 4, fixed ratio 1, mean of CP612 group, n=7
  D4 AH (FR1): 14.57
[1]; active hole responses, Day 4, fixed ratio 3, mean of CP612 group, n=7
  D4 AH (FR3): 14.57
[1]; active hole responses, Day 5, fixed ratio 3, mean of CP612 group, n=7
  D5 AH (FR3): 25.86
[1]; active hole responses, Day 6, fixed ratio 3, mean of CP612 group, n=7
  D6 AH (FR3): 25.71
[1]; active hole responses, Day 7, fixed ratio 3, mean of CP612 group, n=7
  D7 AH (FR3): 27.86
[1]; active hole responses, Day 8, fixed ratio 3, mean of CP612 group, n=7
  D8 AH (FR3): 35.00
[1]; active hole responses, Day 9, fixed ratio 3, mean of CP612 group, n=7
  D9 AH (FR3): 37.86
[1]; active hole responses, Day 10, PR1, CP612 6 hours prior, group mean, n=7
  D10 AH (PR1): 119.00
[1]; active hole responses, Day 12, PR2 withdrawal, CP612 6 hours prior, group mean, n=6
  D12 AH (PR2_WD): 99.33
[1]; active hole responses, Day 13, PR3_Nal, CP612 6 hours prior, group mean, n=7
  D13 AH (PR3_Nal): 78.29
[1]; active hole responses, average of all days D1-D9, mean of CP612 group, n=7
  AH (avg all): 23.68
[1]; active hole responses, average of last 3 days, mean of CP612 group, n=7
  AH (avg last 3 days): 33.57
[1]; inactive hole responses, Day 1, fixed ratio 1, mean of CP612 group, n=7
  D1 IH (FR1): 7.43
[1]; inactive hole responses, Day 2, fixed ratio 1, mean of CP612 group, n=7
  D2 IH (FR1): 12.14
[1]; inactive hole responses, Day 3, fixed ratio 1, mean of CP612 group, n=7
  D3 IH (FR1): 12.43
[1]; inactive hole responses, Day 4, fixed ratio 1, mean of CP612 group, n=7
  D4 IH (FR1): 8.71
[1]; inactive hole responses, Day 4, fixed ratio 3, mean of CP612 group, n=7
  D4 IH (FR3): 8.71
[1]; inactive hole responses, Day 5, fixed ratio 3, mean of CP612 group, n=7
  D5 IH (FR3): 13.86
[1]; inactive hole responses, Day 6, fixed ratio 3, mean of CP612 group, n=7
  D6 IH (FR3): 7.43
[1]; inactive hole responses, Day 7, fixed ratio 3, mean of CP612 group, n=7
  D7 IH (FR3): 4.57
[1]; inactive hole responses, Day 8, fixed ratio 3, mean of CP612 group, n=7
  D8 IH (FR3): 6.43
[1]; inactive hole responses, Day 9, fixed ratio 3, mean of CP612 group, n=7
  D9 IH (FR3): 5.57
[1]; inactive hole responses, Day 10, PR1, CP612 6 hours prior, group mean, n=7
  D10 IH (PR1): 13.00
[1]; inactive hole responses, Day 12, PR2 withdrawal, CP612 6 hours prior, group mean, n=6
  D12 IH (PR2_WD): 10.67
[1]; inactive hole responses, Day 13, PR3_Nal, CP612 6 hours prior, group mean, n=7
  D13 IH (PR3_Nal): 8.86
[1]; inactive hole responses, average of all days D1-D9, mean of CP612 group, n=7
  D9 IH (avg all): 8.73
[1]; inactive hole responses, average of last 3 days, mean of CP612 group, n=7
  D9 IH (avg last 3 days): 5.52
[1]; log of active hole responses, Day 10, PR1, CP612 6 hours prior, group mean, n=7
  D10 AH (PR1) Log: 2.04
[1]; log of active hole responses, Day 12, PR2 withdrawal, CP612 6 hours prior, group mean, n=6
  D12 AH (PR2_WD) Log: 1.94
[1]; log of active hole responses, Day 13, PR3_Nal, CP612 6 hours prior, group mean, n=7
  D13 AH (PR3_Nal) Log: 1.85
[1]; log of inactive hole responses, Day 10, PR1, CP612 6 hours prior, group mean, n=7
  D10 IH (PR1) Log: 1.03
[1]; log of inactive hole responses, Day 12, PR2 withdrawal, CP612 6 hours prior, group mean, n=6
  D12 IH (PR2_WD) Log: 0.89
[1]; log of inactive hole responses, Day 13, PR3_Nal, CP612 6 hours prior, group mean, n=7
  D13 IH (PR3_Nal) Log: 0.88
[1]; log of infusions, Day 10, PR1, CP612 6 hours prior, group mean, n=7
  D10 Inf (PR1) Log: 0.94
[1]; log of infusions, Day 12, PR2 withdrawal, CP612 6 hours prior, group mean, n=6
  D12 Inf (PR2_WD) Log: 0.91
[1]; log of infusions, Day 13, PR3_Nal, CP612 6 hours prior, group mean, n=7
  D13 Inf (PR3_Nal) Log: 0.85
[1]; log of infusions, PR2_WD, day 12, individual rats
  D12 Inf (PR2_WD) Log: 1.04 and 0.85 and 0.90
[1]; log of latency, Day 10, PR1, CP612 6 hours prior, group mean, n=7
  D10 Latency (PR1) Log: -0.40
[1]; log of latency, Day 12, PR2 withdrawal, CP612 6 hours prior, group mean, n=6
  D12 Latency (PR2_WD) Log: -0.00262
[1]; log of latency, Day 13, PR3_Nal, CP612 6 hours prior, group mean, n=7
  D13 Latency (PR3_Nal) Log: -0.48
[1]; morphine infusions, Day 2, fixed ratio 1, mean of CP612 group, n=7
  D2 Inf (FR1): 10.71
[1]; morphine infusions, Day 3, fixed ratio 1, mean of CP612 group, n=7
  D3 Inf (FR1): 10.86
[1]; morphine infusions, Day 4, fixed ratio 1, mean of CP612 group, n=7
  D4 Inf (FR1): 11.00
[1]; morphine infusions, Day 4, fixed ratio 3, mean of CP612 group, n=7
  D4 Inf (FR3): 11.00
[1]; morphine infusions, Day 5, fixed ratio 3, mean of CP612 group, n=7
  D5 Inf (FR3): 6.43
[1]; morphine infusions, Day 6, fixed ratio 3, mean of CP612 group, n=7
  D6 Inf (FR3): 7.14
[1]; morphine infusions, Day 7, fixed ratio 3, mean of CP612 group, n=7
  D7 Inf (FR3): 7.71
[1]; morphine infusions, Day 8, fixed ratio 3, mean of CP612 group, n=7
  D8 Inf (FR3): 9.57
[1]; morphine infusions, Day 9, fixed ratio 3, mean of CP612 group, n=7
  D9 Inf (FR3): 10.29
[1]; morphine infusions, Day 10, progressive ratio test PR1, CP612 6 hours prior, group mean, n=7
  D10 Inf (PR1): 8.86
[1]; morphine infusions, Day 12, progressive ratio test PR2 in withdrawal, CP612 6 hours prior, group mean, n=6
  D12 Inf (PR2_WD): 8.17
[1]; morphine infusions, Day 13, progressive ratio test PR3_Nal, CP612 6 hours prior, group mean, n=7
  D13 Inf (PR3_Nal): 7.29
[1]; morphine infusions, average of all self-administration days D1-D9, mean of CP612 group, n=7
  Inf (avg all): 9.33
[1]; morphine infusions, average of last 3 days, mean of CP612 group, n=7
  Inf (avg last 3 days): 9.19
[1]; morphine infusions, progressive ratio session PR2_WD, day 12, individual rats
  D12 Inf (PR2_WD): 11 and 7 and 8
[1]; morphine infusions, self-administration Day 1, fixed ratio 1, mean of CP612 group, n=7
  D1 Inf (FR1): 10.29
[1]; time to first infusion, Day 1, fixed ratio 1, mean of CP612 group, n=7
  D1 Latency (FR1): 3.00 min
[1]; time to first infusion, Day 2, fixed ratio 1, mean of CP612 group, n=7
  D2 Latency (FR1): 1.98 min
[1]; time to first infusion, Day 3, fixed ratio 1, mean of CP612 group, n=7
  D3 Latency (FR1): 0.73 min
[1]; time to first infusion, Day 4, fixed ratio 3, mean of CP612 group, n=7
  D4 Latency (FR3): 0.44 min
[1]; time to first infusion, Day 5, fixed ratio 3, mean of CP612 group, n=7
  D5 Latency (FR3): 0.20 min
[1]; time to first infusion, Day 6, fixed ratio 3, mean of CP612 group, n=7
  D6 Latency (FR3): 0.53 min
[1]; time to first infusion, Day 7, fixed ratio 3, mean of CP612 group, n=7
  D7 Latency (FR3): 0.53 min
[1]; time to first infusion, Day 8, fixed ratio 3, mean of CP612 group, n=7
  D8 Latency (FR3): 0.46 min
[1]; time to first infusion, Day 9, fixed ratio 3, mean of CP612 group, n=7
  D9 Latency (FR3): 0.44 min
[1]; time to first infusion, Day 10, PR1, CP612 6 hours prior, group mean, n=7
  D10 Latency (PR1): 0.60 min
[1]; time to first infusion, Day 12, PR2 withdrawal, CP612 6 hours prior, group mean, n=6
  D12 Latency (PR2_WD): 1.44 min
[1]; time to first infusion, Day 13, PR3_Nal, CP612 6 hours prior, group mean, n=7
  D13 Latency (PR3_Nal): 0.75 min
[1]; time to first infusion, average of all days D1-D9, mean of CP612 group, n=7
  D9 Latency (avg all): 0.92 min
[1]; time to first infusion, average of last 3 days, mean of CP612 group, n=7
  D9 Latency (avg last 3 days): 0.48 min
[2]
  logD at 3 h: 1.5 ± 0.75
  logD: 1.504
PKCη
  remaining binding at 0.2 µM: < 10%
